Values joined by “and” are separate entries in the source; they are usually repeats but may differ in a detail not shown here. Equal values may be shown once. “Also recorded” adds a separate entry of the source. Read-outs that look alike come from different tables or passages of the source.
What was measured:
[1] = target: Tzc-ACR-16 (Thelazia callipaeda, UniProt A0A158RD20); experiment: cell-based; type: cell-based
Procedure: (§1) cRNA for oocyte injection was prepared with the mMESSAGE mMACHINE T7 kit following manufacturers protocol (Ambion, USA). Concentration was determined using a Nanodrop spectrophotometer. Desired subunit combinations with associated accessory proteins were mixed and diluted with nuclease-free water to a final concentration of 250 ng/uL for each construct.
(§2) Adult female X. laevis oocyte extraction was performed in accordance with the McGill University Animal Use Protocol 2015–7758 following standard protocol. Briefly, frog ovary lobes were placed in a Ca^2+-free OR2 solution (82 mM NaCl, 2 mM KCl, 1 mM MgCl2, 5 mM HEPES buffer, pH 7.3) and manually divided into clusters of <10 oocytes with thin tweezers followed by a 90-minute incubation in 10 mg/mL collagenase type II (Sigma-Aldrich, USA). Oocytes were washed in Ca^2+-free OR2 and placed ND96 solution (NaCl 96 mM, KCl 2 mM, CaCl2 1.8 mM, MgCl2 1 mM and HEPES 5 mM, pH 7.3) supplemented with sodium pyruvate 2.5 mM [86] and incubated at 18°C until cRNA injection. Oocytes were injected with 50 nL (12.5 ng of each injected gene) of the desired cRNA subunit and accessory protein combination mix with the NanojectII (Drummond Scientific, USA). Following injection, oocytes were incubated in ND96 buffer at 18°C until electrophysiology. All electrophysiology was conducted two days post-injection, except for the expression analysis assay in which oocytes were measured every day after injection for three consecutive days.
(§3) All drugs were dissolved in recording solution (NaCl 100 mM, KCl 2.5 mM, CaCl2 1 mM, HEPES 5 mM, pH 7.3) to a stock concentration of 10 mM and diluted to their final recording concentrations. Oxantel and bephenium were first dissolved in DMSO to ensure a final recording concentration contained less than 0.1% DMSO. For agonist profiling, all drugs were diluted to a concentration of 100 μM.
(§4) Oocytes were placed individually in an RC3Z chamber (Harvard Apparatus, USA) submerged in recording solution (NaCl 100 mM, KCl 2.5 mM, CaCl2 1 mM, HEPES 5 mM, pH 7.3). The RC3Z chamber was connected to a perfusion system containing recording solution and ligand solutions. Pulled glass capillaries (World Precision Instruments, USA) were filled with 3M KCl and the tips clipped and checked for appropriate resistance (between 0.5 and 5 MΩ). A 3M KCl agar bridge grounded the oocyte bath chamber. Measurements were made using an Axon Axoclamp 900A amplifier with Digidata1550M. […] Ligand solutions were applied to the oocytes with an approximate flow rate of 1.2 m/s and current responses measured. Oocytes were exposed to the ligand solution until a distinct current peak was observed followed by a wash with the recording solution until current returned to baseline for a minimum of 10 seconds until the next ligand exposure. For BAPTA-AM exposed oocytes, oocytes were incubated in 100 μM BAPTA-AM for four hours prior to electrophysiology recording. Data was analyzed using Clampex 9.2 (Axon Instruments, USA) and statistical analysis and graphs produced in Prism (GraphPad version 9.1). T-tests were used to compare responses with error bars representing standard error. For concentration-response curves, individual oocyte current response to the different ligand concentrations were normalized to the response obtained with 300 μM. Data was fit using the Graphpad “log(agonist) vs normalized response–variable slope” equation, with 95% confidence intervals being reported. […] For examples of oocyte responses, recordings were filtered in Clampfit using the lowband pass at 40 Hz cutoff.

[2] = target: Dme-ACR-16 (Dracunculus medinensis, UniProt A0A0N4U0T6); experiment: cell-based; type: cell-based
Procedure: as §1, §2, §3, §4

[3] = target: Asu-ACR-16 (Ascaris suum, UniProt F1KYJ9); experiment: cell-based; type: cell-based
Procedure: as §1, §2, §3, §4

[4] = tested on: Bma-ACR-16; type: cell-based, Brugia malayi
Procedure: as §1, §2, §3, §4

[5] = tested on: Gpu-ACR-16; experiment: Voltage-clamp electrophysiology, N-AChR reconstituted in Xenopus laevis oocytes; type: cell-based, Gonglyonema pulchrum
Procedure: as §1, §2, §3, §4

[6] = No accessory protein, listed as acetylcholine
[7] = co-injected: Bma-ric-3 (reference condition)
[8] = co-injected: Bma-ric-3 (reference condition), listed as acetylcholine
[9] = co-injected: Bma-ric-3 + Bma-eat-18
[10] = co-injected: Bma-ric-3 + Bma-molo-1
[11] = co-injected: Bma-ric-3 + Bma-unc-50 + Bma-unc-74
[12] = co-injected: Bma-ric-3 + Bma-unc-50 + Bma-unc-74 + Bma-eat-18
[13] = co-injected: Bma-ric-3 + Cel-emc-6
[14] = co-injected: Bma-ric-3 + Cel-nra-2 + Cel-nra-4
[15] = co-injected: Bma-ric-3 + Cel-nra-2 + Cel-nra-4, listed as acetylcholine
[16] = co-injected: Hco-ric-3, listed as acetylcholine

Tzc-ACR-16, sequence (A0A158RD20 entry or part of it): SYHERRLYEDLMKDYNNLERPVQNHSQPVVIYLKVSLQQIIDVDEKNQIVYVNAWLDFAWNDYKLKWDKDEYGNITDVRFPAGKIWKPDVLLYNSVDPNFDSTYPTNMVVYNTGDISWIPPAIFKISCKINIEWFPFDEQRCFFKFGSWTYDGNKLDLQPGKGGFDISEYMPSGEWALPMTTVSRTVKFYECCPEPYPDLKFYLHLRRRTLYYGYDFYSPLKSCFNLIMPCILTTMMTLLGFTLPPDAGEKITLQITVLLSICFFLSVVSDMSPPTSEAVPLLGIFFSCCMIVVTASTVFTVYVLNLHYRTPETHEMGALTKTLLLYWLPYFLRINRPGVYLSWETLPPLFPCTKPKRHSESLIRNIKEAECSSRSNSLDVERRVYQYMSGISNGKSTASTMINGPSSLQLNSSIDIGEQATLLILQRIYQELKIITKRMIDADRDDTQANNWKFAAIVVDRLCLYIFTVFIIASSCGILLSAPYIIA
Asu-ACR-16, sequence (F1KYJ9 entry or part of it): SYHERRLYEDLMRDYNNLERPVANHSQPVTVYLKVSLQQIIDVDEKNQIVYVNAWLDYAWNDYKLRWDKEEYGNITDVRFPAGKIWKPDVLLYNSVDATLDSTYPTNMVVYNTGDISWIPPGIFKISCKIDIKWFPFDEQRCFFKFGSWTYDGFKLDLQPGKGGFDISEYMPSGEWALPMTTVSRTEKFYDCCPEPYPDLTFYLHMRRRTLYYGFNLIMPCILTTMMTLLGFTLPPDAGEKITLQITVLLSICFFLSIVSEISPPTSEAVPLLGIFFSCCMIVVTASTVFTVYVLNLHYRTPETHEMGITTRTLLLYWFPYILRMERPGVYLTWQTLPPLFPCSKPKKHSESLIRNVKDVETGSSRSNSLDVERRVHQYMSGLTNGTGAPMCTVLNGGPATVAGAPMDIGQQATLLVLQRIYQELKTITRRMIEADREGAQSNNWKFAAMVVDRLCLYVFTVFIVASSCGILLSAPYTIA
Dme-ACR-16, sequence (A0A0N4U0T6 entry or part of it): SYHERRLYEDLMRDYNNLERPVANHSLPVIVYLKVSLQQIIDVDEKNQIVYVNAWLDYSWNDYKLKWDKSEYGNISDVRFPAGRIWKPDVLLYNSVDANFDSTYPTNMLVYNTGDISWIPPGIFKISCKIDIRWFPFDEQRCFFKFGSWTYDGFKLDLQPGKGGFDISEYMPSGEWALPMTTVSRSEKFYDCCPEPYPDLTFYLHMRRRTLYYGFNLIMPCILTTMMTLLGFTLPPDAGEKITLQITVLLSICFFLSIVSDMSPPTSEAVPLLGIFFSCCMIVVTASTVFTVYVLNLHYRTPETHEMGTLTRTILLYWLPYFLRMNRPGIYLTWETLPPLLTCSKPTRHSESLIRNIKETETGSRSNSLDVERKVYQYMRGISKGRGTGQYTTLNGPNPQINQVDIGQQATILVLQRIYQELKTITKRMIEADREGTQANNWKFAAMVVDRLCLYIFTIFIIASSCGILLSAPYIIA

## CC(=O)OCC[N+](C)(C)C [ACh, acetylcholine]
[1]
  EC50: 17.4 µM
[1]; Day 1 post-injection
  response to 100 μM acetylcholine normalized to Day 3 response: 7 ± 1%
[1]; Day 2 post-injection
  response to 100 μM acetylcholine normalized to Day 3 response: 47 ± 12%
[1]; No accessory protein
  current response to 100 μM acetylcholine: 0 ± 0 nA
[1]; [6]
  current response to 100 μM acetylcholine: 0 ± 0 (n=15) nA
[1]; [7]
  current response to 100 μM acetylcholine: 818 ± 112 nA
[1]; [8]
  current response to 100 μM acetylcholine: 818 ± 112 (n=13) nA
[1]; [9]
  current response to 100 μM acetylcholine: 791 ± 119 (n=8) ns nA
[1]; [10]
  current response to 100 μM acetylcholine: 660 ± 76 (n=15) ns nA
[1]; [11]
  current response to 100 μM acetylcholine: 367 ± 43 nA
[1]; [12]
  current response to 100 μM acetylcholine: 964 ± 101 (n=15) ns nA
[1]; co-injected: Bma-ric-3 + Bma-unc-50 + Bma-unc-74, listed as acetylcholine
  current response to 100 μM acetylcholine: 367 ± 43 (n=15) nA
[1]; [13]
  current response to 100 μM acetylcholine: 720 ± 70 (n=13) ns nA
[1]; [14]
  current response to 100 μM acetylcholine: 1263 ± 88 nA
[1]; [15]
  current response to 100 μM acetylcholine: 1263 ± 88 (n=15) nA
[1]; co-injected: Hco-ric-3
  current response to 100 μM acetylcholine: 400–600 nA
[1]; [16]
  current response to 100 μM acetylcholine: 563 ± 39 nA and 563 ± 39 (n=13) nA
[2]
  EC50: 12.8 µM
[2]; Day 1 post-injection
  response to 100 μM acetylcholine normalized to Day 3 response: 49 ± 7%
[2]; Day 2 post-injection
  response to 100 μM acetylcholine normalized to Day 3 response: 102 ± 7%
[2]; No accessory protein
  current response to 100 μM acetylcholine: 1290 ± 70 nA
[2]; [6]
  current response to 100 μM acetylcholine: 1290 ± 70 (n=17) nA
[2]; [9]
  current response to 100 μM acetylcholine: 2649 ± 112 (n=11) ns nA
[2]; [10]
  current response to 100 μM acetylcholine: 2354 ± 108 (n=13) ns nA
[2]; [11]
  current response to 100 μM acetylcholine: 2368 ± 105 (n=13) ns nA
[2]; [12]
  current response to 100 μM acetylcholine: 2222 ± 62 (n=15) ns nA
[2]; [13]
  current response to 100 μM acetylcholine: 2183 ± 87 (n=11) ns nA
[2]; [14]
  current response to 100 μM acetylcholine: 2425 ± 133 (n=12) ns nA
[2]; co-injected: Hco-ric-3
  current response to 100 μM acetylcholine: 2000–2200 nA
[2]; [16]
  current response to 100 μM acetylcholine: 2150 ± 59 nA and 2150 ± 59 (n=15) ns nA
[3]; Day 1 post-injection
  response to 100 μM acetylcholine normalized to Day 3 response: 44 ± 5%
[3]; Day 2 post-injection
  response to 100 μM acetylcholine normalized to Day 3 response: 88 ± 5%
[3]; No accessory protein
  current response to 100 μM acetylcholine: 24 ± 10 nA
[3]; [6]
  current response to 100 μM acetylcholine: 24 ± 10 (n=11) nA
[3]; [7]
  current response to 100 μM acetylcholine: 2023 ± 68 nA
[3]; [8]
  current response to 100 μM acetylcholine: 2023 ± 68 (n=11) nA
[3]; [9]
  current response to 100 μM acetylcholine: 3152 ± 102 (n=13) nA
[3]; [10]
  current response to 100 μM acetylcholine: 1425 ± 55 (n=15) nA
[3]; [11]
  current response to 100 μM acetylcholine: 2606 ± 183 (n=10) nA
[3]; [12]
  current response to 100 μM acetylcholine: 2166 ± 87 (n=12) ns nA
[3]; [13]
  current response to 100 μM acetylcholine: 2582 ± 89 (n=12) nA
[3]; [14]
  current response to 100 μM acetylcholine: 2849 ± 152 (n=14) nA
[3]; co-injected: Hco-ric-3
  current response to 100 μM acetylcholine: 2000–2200 nA and 2052 ± 70 nA
[3]; [16]
  current response to 100 μM acetylcholine: 2052 ± 66 nA and 2052 ± 66 (n=13) ns nA
[4]; No accessory protein
  current response to 100 μM acetylcholine: 0 ± 0 (n=12) nA
[4]; [7]
  current response to 100 μM acetylcholine: no responses and 0 ± 0 (n=8) nA
[4]; [9]
  current response to 100 μM acetylcholine: 0± 0 (n=10) nA
[4]; co-injected: Bma-ric-3 + Bma-emc-6 + Cel-nra-2 + Cel-nra-4
  current response to 100 μM acetylcholine: 11 ± 9 nA
[4]; co-injected: Bma-ric-3 + Bma-emc-6 + Cel-nra-2 + Cel-nra-4 + Bma-eat-18
  current response to 100 μM acetylcholine: 2 ± 1 nA
[4]; co-injected: Bma-ric-3 + Bma-emc-6 + Cel-nra-2 + Cel-nra-4 + Bma-eat-18 + Bma-unc-50 + Bma-unc-74
  current response to 100 μM acetylcholine: 0 ± 0 nA
[4]; co-injected: Bma-ric-3 + Bma-emc-6 + Cel-nra-2 + Cel-nra-4 + Bma-eat-18 + Bma-unc-50 + Bma-unc-74, listed as acetylcholine
  current response to 100 μM acetylcholine: 0 ± 0 (n=11) nA
[4]; co-injected: Bma-ric-3 + Bma-emc-6 + Cel-nra-2 + Cel-nra-4 + Bma-eat-18, listed as acetylcholine
  current response to 100 μM acetylcholine: 2 ± 1 (n=12) ns nA
[4]; co-injected: Bma-ric-3 + Bma-emc-6 + Cel-nra-2 + Cel-nra-4, listed as acetylcholine
  current response to 100 μM acetylcholine: 11 ± 9 (n=11) ns nA
[4]; [10]
  current response to 100 μM acetylcholine: 0 ± 0 (n=16) nA
[4]; [11]
  current response to 100 μM acetylcholine: 0 ± 0 (n=5) nA
[4]; [12]
  current response to 100 μM acetylcholine: 0 ± 0 (n=13) nA
[4]; [13]
  current response to 100 μM acetylcholine: 17 ± 4 nA and 17 ± 4 (n=13) nA
[4]; co-injected: Bma-ric-3 + Cel-nra-2
  current response to 100 μM acetylcholine: 33 ± 9 nA
[4]; [15]
  current response to 100 μM acetylcholine: 4 ± 2 nA and 4 ± 2 (n=12) nA
[4]; co-injected: Bma-ric-3 + Cel-nra-2, listed as acetylcholine
  current response to 100 μM acetylcholine: 33 ± 9 (n=14) nA
[4]; co-injected: Bma-ric-3 + Cel-nra-4
  current response to 100 μM acetylcholine: 31 ±13 nA
[4]; co-injected: Bma-ric-3 + Cel-nra-4, listed as acetylcholine
  current response to 100 μM acetylcholine: 31 ± 13 (n=12) ns nA
[4]; co-injected: Hco-ric-3
  current response to 100 μM acetylcholine: no measurable current; also recorded: no responses
[4]; [16]
  current response to 100 μM acetylcholine: 0 ± 0 nA and 0 ± 0 (n=12) nA
[5]; Day 1 post-injection
  response to 100 μM acetylcholine normalized to Day 3 response: 19 ± 6%
[5]; Day 2 post-injection
  response to 100 μM acetylcholine normalized to Day 3 response: 76 ± 6%
[5]; No accessory protein
  current response to 100 μM acetylcholine: 0 ± 0 nA
[5]; [6]
  current response to 100 μM acetylcholine: 0 ± 0 (n=14) nA
[5]; [7]
  current response to 100 μM acetylcholine: 1281 ± 197 nA
[5]; [8]
  current response to 100 μM acetylcholine: 1281 ± 197 (n=8) nA
[5]; [9]
  current response to 100 μM acetylcholine: 1264 ± 177 (n=10) ns nA
[5]; [10]
  current response to 100 μM acetylcholine: 1049 ± 77 (n=16) ns nA
[5]; [11]
  current response to 100 μM acetylcholine: 847 ± 124 (n=14) ns nA
[5]; [12]
  current response to 100 μM acetylcholine: 1854 ± 83 nA
[5]; co-injected: Bma-ric-3 + Bma-unc-50 + Bma-unc-74 + Bma-eat-18, listed as acetylcholine
  current response to 100 μM acetylcholine: 1854 ± 83 (n=14) nA
[5]; [13]
  current response to 100 μM acetylcholine: 1628 ± 123 (n=17) ns nA
[5]; [14]
  current response to 100 μM acetylcholine: 2553 ± 123 nA
[5]; [15]
  current response to 100 μM acetylcholine: 2553 ±123 (n=12) nA
[5]; co-injected: Hco-ric-3
  current response to 100 μM acetylcholine: ~ 1400 nA
[5]; [16]
  current response to 100 μM acetylcholine: 1403 ± 91 nA and 1403 ± 91 (n=14) ns nA
[5]; read-out: EC50 ACh, concentration-response 0.3-300 μM, normalized to 300 μM, with 95% CI
  EC50: 10.5 µM

Source: PMC9714921 (PLOS Pathogens, 2022)
